Results reported in patent US20210308089A1, “METHODS OF TREATING AND/OR PREVENTING VIRAL INFECTIONS AND/OR DISEASES CAUSED BY VIRUSES IN A SUBJECT IN NEED THEREOF” (priority 2020, published 2021).

Test system: patients of the REDUCE-IT and earlier EPA placebo-controlled trials
Test: Example 3: adverse events by risk ratio, icosapent ethyl vs placebo (candidate categories; infectious disease terms of interest)
Conditions: for ARR / NNT / Risk Ratio (95% CI) / AR: Cough (AE table) / ARR: Cough (AE table) / NNT: Cough (AE table) / Risk Ratio (95% CI): Cough (AE table): R-I
[1] = Cognitive Decline: Attention disorders and disturbances
[2] = Cognitive Decline: Cognitive and attention disorders and disturbances
[3] = Depression: Depressed mood disorders and disturbances
[4] = Depression: Depressive disorders
[5] = Depression: Depressive disorders - Depression
[6] = Depression: Depressive disorders - Major depression
[7] = Depression: Depressive disorders - Persistent depressive disorder
[8] = Depression: Depressive disorders- Agitated depression
[9] = Depression: Mood alterations - Depressed mood
[10] = Depression: Mood alterations - Depressive symptom
[11] = Depression: Mood alterations with depressive symptoms
[12] = Glomerulonephritis and Nephrotic Syndrome
[13] = Limb Fractures and Dislocations
[14] = NASH+Hepatic Steatosis for NFS >0.675
[15] = Psychosis: Psychotic disorder NEC
[16] = Squamous Cell Carcinoma of Head and Neck
[17] = Systemic Inflammatory Response Syndrome
[18] = first of three Cough lines of Table 46
[19] = second of three Cough lines of Table 46

## CC/C=C\C/C=C\C/C=C\C/C=C\C/C=C\CCCC(=O)OCC [icosapent ethyl, eicosapentaenoic acid ethyl ester]
Bipolar Disease
  ARR: −0.0%
  NNT: 2045
  Risk Ratio (95% CI): 0.333 (0.035 to 3.204) 4
Blood CPK increased
  ARR: −0.6%
  NNT: 164
  Risk Ratio (95% CI): 0.684 (0.485 to 0.964) 2
Bone Fractures
  ARR: 0.0%
  NNT: −4088
  Risk Ratio (95% CI): 2.000 (0.181 to 22.053) −3
Breast Cancer
  ARR: 0.0%
  NNT: −2389144
  Risk Ratio (95% CI): 1.000 (0.351 to 2.849) −1
CKD
  ARR: 0.1%
  NNT: −680
  Risk Ratio (95% CI): 1.123 (0.766 to 1.646) −1
COPD
  ARR: 0.2%
  NNT: −453
  Risk Ratio (95% CI): 1.084 (0.837 to 1.405) −1
Chrohn's Disease
  ARR: −0.0%
  NNT: 2045
  Risk Ratio (95% CI): 0.333 (0.035 to 3.204) 4
Chronic Lymphycytic Leukaemia
  ARR: 0.1%
  NNT: −1363
Chronic Lymphycytic Leukaemia, case counts given
  Risk Ratio (95% CI): [3 drug vs 0 PBO]
[1]
  ARR: 0.0%
  NNT: −8362005
  Risk Ratio (95% CI): 1.000 (0.141 to 7.097) −1
[2]
  ARR: 0.0%
  NNT: −8362005
  Risk Ratio (95% CI): 1.000 (0.141 to 7.097) −1
Cognitive Decline: Cognitive disturbances
  Risk Ratio (95% CI): [No cases in study]
Colon Cancer
  ARR: 0.1%
  NNT: −1022
  Risk Ratio (95% CI): 2.000 (0.603 to 6.638) −3
Cough
  ARR: −0.2%
  NNT: 455
  Risk Ratio (95% CI): 0.526 (0.245 to 1.131) 3
Cystic Fibrosis
  Risk Ratio (95% CI): [No cases in study]
Decreased Appetite
  ARR: 0.5%
  NNT: −215
  Risk Ratio (95% CI): 2.584 (1.329 to 5.024) −4
Deep Venous Thromboembolism
  ARR: −0.1%
  NNT: 1364
  Risk Ratio (95% CI): 0.625 (0.205 to 1.909) 2
[3]
  ARR: 0.3%
  NNT: −340
  Risk Ratio (95% CI): 1.106 (0.861 to 1.422) −1
[4]
  ARR: 0.3%
  NNT: −314
  Risk Ratio (95% CI): 1.123 (0.867 to 1.454) −1
[5]
  ARR: 0.2%
  NNT: −408
  Risk Ratio (95% CI): 1.097 (0.843 to 1.428) −1
[6]
  ARR: 0.0%
  NNT: −2044
  Risk Ratio (95% CI): 3.001 (0.312 to 28.836) −4
[7]
  ARR: 0.0%
  NNT: −4088
  Risk Ratio (95% CI): 2.000 (0.181 to 22.053) −3
[8]
  ARR: 0.0%
  NNT: −2044
Depression: Depressive disorders- Agitated depression, case counts given
  Risk Ratio (95% CI): [2 drug vs 0 PBO]
[9]
  ARR: 0.0%
  NNT: −3344802
  Risk Ratio (95% CI): 1.000 (0.290 to 3.452) −1
[10]
  ARR: −0.0%
  NNT: 4091
  Risk Ratio (95% CI): 0.500 (0.045 to 5.513) 3
[11]
  ARR: −0.0%
  NNT: 4096
  Risk Ratio (95% CI): 0.857 (0.288 to 2.549) 1
Dermatitis psoriasiform
  ARR: 0.0%
  NNT: −4089
Dermatitis psoriasiform, case counts given
  Risk Ratio (95% CI): [1 drug vs 0 PBO]
Dermatitis, allergic
  ARR: −0.2%
  NNT: 454
  Risk Ratio (95% CI): 0.250 (0.071 to 0.885) 4
Diabetic Nephropathy
  ARR: −0.0%
  NNT: 4100
  Risk Ratio (95% CI): 0.909 (0.387 to 2.139) 1
Dry Eye
  ARR: 0.1%
  NNT: −1020
  Risk Ratio (95% CI): 1.129 (0.698 to 1.828) −1
ESRD
  ARR: −0.0%
  NNT: 4092
  Risk Ratio (95% CI): 0.667 (0.111 to 3.989) 2
Embolism and Thrombosis
  ARR: 0.1%
  NNT: −1358
  Risk Ratio (95% CI): 1.064 (0.716 to 1.581) −1
Epilepsy
  ARR: 0.0%
  NNT: −1.67e+07
  Risk Ratio (95% CI): 1.000 (0.063 to 15.986)−1
Erectile dysfunction
  ARR: −0.4%
  NNT: 232
  Risk Ratio (95% CI): 0.784 (0.535 to 1.151) 2
Gastric Cancer
  ARR: 0.0%
  NNT: −4088
  Risk Ratio (95% CI): 2.000 (0.181 to 22.053) −3
Gastroesophageal reflux
  ARR: −0.1%
  NNT: 682
  Risk Ratio (95% CI): 0.333 (0.090 to 1.231) 4
[12]
  ARR: −0.1%
  NNT: 1023
Glomerulonephritis and Nephrotic Syndrome, case counts given
  Risk Ratio (95% CI): [0 drug vs 4 PBO]
Guttate psoriasis
  ARR: 0.0%
  NNT: −4089
Guttate psoriasis, case counts given
  Risk Ratio (95% CI): [1 drug vs 0 PBO]
Hepatitis C
  ARR: 0.0%
  NNT: −4089
Hepatitis C, case counts given
  Risk Ratio (95% CI): [1 drug vs 0 PBO]
IgA Nephropathy
  Risk Ratio (95% CI): [No cases in study]
Large intestine polyps
  ARR: −0.2%
  NNT: 511
  Risk Ratio (95% CI): 0.385 (0.137 to 1.078) 4
Leukaemia
  ARR: 0.0%
  NNT: −1.67e+07
  Risk Ratio (95% CI): 1.000 (0.063 to 15.986) −1
[13]
  ARR: −0.1%
  NNT: 1024
  Risk Ratio (95% CI): 0.883 (0.541 to 1.439) 1
Liver Cancer
  ARR: 0.0%
  NNT: −4088
  Risk Ratio (95% CI): 2.000 (0.181 to 22.053) −3
Lung Cancer
  ARR: −0.1%
  NNT: 1023
  Risk Ratio (95% CI): 0.637 (0.247 to 1.640) 2
Lupus
  ARR: −0.0%
  NNT: 4090
Lupus, case counts given
  Risk Ratio (95% CI): [0 drug vs 1 PBO]
Macular Degeneration
  ARR: 0.1%
  NNT: −1361
  Risk Ratio (95% CI): 1.188 (0.612 to 2.306) −1
Male Infertility
  Risk Ratio (95% CI): [No cases in study]
Migraine
  ARR: 0.2%
  NNT: −584
  Risk Ratio (95% CI): 2.751 (0.877 to 8.631) −4
Mucositis
  Risk Ratio (95% CI): [No cases in study]
Multiple Sclerosis
  ARR: −0.0%
  NNT: 4090
Multiple Sclerosis, case counts given
  Risk Ratio (95% CI): [0 drug vs 1 PBO]
Muscle spasms
  ARR: −1.1%
  NNT: 95
  Risk Ratio (95% CI): 0.579 (0.421 to 0.795) 3
NASH
  ARR: −0.1%
  NNT: 818
  Risk Ratio (95% CI): 0.167 (0.020 to 1.384) 5
NASH for b/l NFS >0.675
  ARR: −0.4%
  NNT: 273
  Risk Ratio (95% CI): 0.252 (0.028 to 2.251) 4
[14]
  ARR: −0.5%
  NNT: 209
  Risk Ratio (95% CI): 0.740 (0.342 to 1.601) 2
Nephrolithiasis
  ARR: 0.1%
  NNT: −1017
  Risk Ratio (95% CI): 1.050 (0.777 to 1.419) −1
Nephropathies
  ARR: −0.2%
  NNT: 455
  Risk Ratio (95% CI): 0.679 (0.380 to 1.213)2
Nephrotic Syndrome
  ARR: −0.0%
  NNT: 4090
Nephrotic Syndrome, case counts given
  Risk Ratio (95% CI): [0 drug vs 1 PBO]
PMS/Dysmenorrhea
  Risk Ratio (95% CI): [No cases in study]
PTSD
  ARR: −0.0%
  NNT: 4092
  Risk Ratio (95% CI): 0.667 (0.111 to 3.989) 2
Pancreatic Cancer
  ARR: 0.1%
  NNT: −1022
  Risk Ratio (95% CI): 5.001 (0.585 to 42.789) −5
Periodontitis
  ARR: 0.0%
  NNT: −2044
Polycystic Ovarian Syndrome
  Risk Ratio (95% CI): [No cases in study]
Psoriasis
  ARR: 0.3%
  NNT: −341
  Risk Ratio (95% CI): 1.750 (0.949 to 3.230) −3
Psoriatic Conditions
  ARR: 0.3%
  NNT: −292
  Risk Ratio (95% CI): 1.875 (1.024 to 3.435) −3
[15]
  ARR: −0.0%
  NNT: 4091
  Risk Ratio (95% CI): 0.500 (0.045 to 5.513) 3
Renal Transplant
  Risk Ratio (95% CI): [No cases in study]
Rheumatoid Arthritis
  ARR: −0.1%
  NNT: 1363
Rheumatoid Arthritis, case counts given
  Risk Ratio (95% CI): [0 drug vs 3 PBO]
Schizophrenia NEC
  ARR: −0.0%
  NNT: 4091
  Risk Ratio (95% CI): 0.500 (0.045 to 5.513) 3
Sepsis
  ARR: −0.1%
  NNT: 682
  Risk Ratio (95% CI): 0.807 (0.477 to 1.364) 1
Sickle Cell Disease
  Risk Ratio (95% CI): [No cases in study]
[16]
  ARR: −0.0%
  NNT: 4090
Squamous Cell Carcinoma of Head and Neck, case counts given
  Risk Ratio (95% CI): [0 drug vs 1 PBO]
[17]
  ARR: −0.1%
  NNT: 682
  Risk Ratio (95% CI): 0.143 (0.018 to 1.161) 5
Ulcerative Colitis
  ARR: −0.0%
  NNT: 4090
Ulcerative Colitis, case counts given
  Risk Ratio (95% CI): [0 drug vs 1 PBO]
Wheezing
  ARR: −0.3%
  NNT: 315
  Risk Ratio (95% CI): 0.639 (0.379 to 1.076) 2
[18]
  AR: Cough (AE table): 1,5%
  ARR: Cough (AE table): 0.9%
  NNT: Cough (AE table): −112
  Risk Ratio (95% CI): Cough (AE table): 1.928 (0.692 to 5.373) −3
[19]
  AR: Cough (AE table): 0.4%
  ARR: Cough (AE table): −0.2%
  NNT: Cough (AE table): 455
  Risk Ratio (95% CI): Cough (AE table): 0.526 (0.245 to 1.131) 3
Vs placebo, p value 0.06
  Severe SIRS: RR: approximately 0.17
Vs placebo, p-value 0.0338
  Systemic inflammatory response: risk ratio (RR): 0.143
